Assay results published in ChEMBL document CHEMBL4373731, “Antiprotozoal alkaloid principles of the plant family Amaryllidaceae” (Bioorg Med Chem Lett, 2019).
Converted amounts (≈) assume the structure as drawn.

What was measured:
Trypanosoma cruzi [1] = experiment: Antitrypanosomal activity against Trypanosoma cruzi; type: functional, organism-based
Leishmania donovani [2] = experiment: […] activity against Leishmania donovani; type: functional, organism-based
Trichomonas vaginalis [3] = experiment: Antiprotozoal activity against Trichomonas vaginalis assessed as reduction in […] at 250 ug/ml at relative to control; type: functional
[4] = system: Trypanosoma brucei rhodesiense; experiment: Antitrypanosomal activity against Trypanosoma brucei rhodesiense; type: functional, organism-based
[5] = Selectivity index, ratio of IC50 for Trypanosoma brucei rhodesiense to IC50 for human KB cells; type: toxicity; details: read-out: Ratio IC50
KB = experiment: Cytotoxicity against human KB cells assessed as reduction in cell viability; type: cell-based
L6 = experiment: Cytotoxicity against rat L6 cells assessed as reduction in cell viability; type: cell-based
Trichomonas vaginalis [6] = experiment: Antitrichomonal activity against Trichomonas vaginalis assessed as reduction in parasite viability at 125 ug/ml relative to control; type: functional
Entamoeba histolytica = experiment: […] activity against Entamoeba histolytica; type: functional, organism-based
Trypanosoma cruzi [7] = experiment: Antitrypanosomal activity against Trypanosoma cruzi after 48 hrs by [3H]-hypoxanthine incorporation assay; type: functional, organism-based
Leishmania donovani [8] = experiment: […] activity against Leishmania donovani after 48 hrs by [3H]-hypoxanthine incorporation assay; type: functional, organism-based
[9] = system: Trypanosoma brucei rhodesiense; experiment: Antitrypanosomal activity against Trypanosoma brucei rhodesiense after 48 hrs by [3H]-hypoxanthine incorporation assay; type: functional, organism-based

IC50 (Trypanosoma cruzi [1]) [µg/mL]	Compound	IC50 (Leishmania donovani [2]) [µg/mL]	IC50 [4] [µg/mL]	further results
–	O=C(O[C@H]1[C@H]2c3cc4c(cc3CN3CCC(=C[C@@H]1OC(=O)c1ccccc1)[C@H]23)OCO4)c1ccccc1	–	–	Activity (Trichomonas vaginalis [3]): 84%
–	O=C(O[C@H]1C=C2CCN3Cc4cc5c(cc4[C@H]([C@@H]1O)[C@@H]23)OCO5)c1ccccc1	–	–	Activity (Trichomonas vaginalis [3]): 35%
90 (≈ 342 µM)	O=c1c2cc3c(cc2c2cccc4ccn1c42)OCO3	–	8.4 (≈ 31.9 µM)	–
–	COc1cc2c(cc1OC)[C@@]13C=CC(=O)C[C@@H]1[N@](CC3)C2	–	2.8 (≈ 9.81 µM)	–
–	CCCCCCCCCCCC(=O)O[C@H]1C=C2CCN3Cc4cc5c(cc4[C@H]([C@@H]1O)[C@@H]23)OCO5	–	–	Activity (Trichomonas vaginalis [3]): 97%
> 30	COc1cc2c[n+]3c4c(cc([O-])cc4c2cc1O)CC3	> 30	> 30	–
88.4 (≈ 291 µM)	COc1cc2c(cc1O)C[N@@]1C[C@H](O)[C@@]23C=C[C@@H](OC)C[C@H]13	> 90	10.2 (≈ 33.7 µM)	–
> 90	COc1cc2c(cc1OC)[C@@H]1[C@H](OC(C)=O)[C@@H](O)C[C@H]3CC[N+]([O-])(C2)[C@H]31 (some centres undefined)	> 90	73.4 (≈ 202 µM)	selectivity ratio [5]: > 16; IC50 (KB): > 50 µg/mL; IC50 (L6): > 90 µg/mL
52.7 (≈ 207 µM)	O=c1[nH]c2c(O)cccc2c2cc3c(cc12)OCO3	> 90	5.99 (≈ 23.5 µM)	–
54.6 (≈ 190 µM)	O[C@H]1[C@H]2C(=CC[C@@H]1O)[C@H]1C[N@]2Cc2cc3c(cc21)OCO3	> 30	9.6 (≈ 33.4 µM)	–
> 90	[O-][N@@+]12Cc3cc4c(cc3[C@]3(C=C[C@@H](O)C[C@@H]31)[C@@H](O)C2)OCO4	> 90	> 90	–
–	O[C@H]1CC[C@H]2[N@@]3CC[C@@]2(c2cc4c(cc2C3)OCO4)[C@H]1O	–	11.1 (≈ 38.3 µM)	–
8.3 (≈ 25.2 µM)	CC(=O)O[C@H]1C=C[C@@]23c4cc5c(cc4C[N@@](C[C@@H]2O)[C@H]3C1)OCO5	17.9 (≈ 54.3 µM)	1.51 (≈ 4.58 µM)	–
–	O=C(O[C@H]1[C@H]2c3cc4c(cc3CN3CCC(=C[C@@H]1O)[C@H]23)OCO4)c1ccc([N+](=O)[O-])cc1	–	–	Activity (Trichomonas vaginalis [3]): 58%
46.3 (≈ 131 µM)	CN1CCc2cc3c(cc2C(=O)Cc2ccc4c(c2C1)OCO4)OCO3	> 90	8.71 (≈ 24.6 µM)	–
–	c1c2c(cc3c1[C@@H]1C[C@H]4[C@H](CC[C@@H]5NCC[C@@]354)O1)OCO2	–	18.7 (≈ 65.5 µM)	–
–	O=C(O[C@H]1C=C2CCN3Cc4cc5c(cc4[C@H]([C@@H]1O)[C@@H]23)OCO5)c1ccc([N+](=O)[O-])cc1	–	–	Activity (Trichomonas vaginalis [3]): 79%
–	COc1cc2c(cc1OC)[C@@H]1[C@H](O)[C@@H](OC)[C@H](O)C3=CCN(C2)[C@H]31	–	3.1 (≈ 9.3 µM)	–
–	O[C@@H]1CC[C@H]2N3CC[C@@]2(c2cc4c(cc2C3)OCO4)[C@@H]1O	–	31.9 (≈ 110 µM)	–
–	CN1CCC2=C[C@H](O)[C@H]3OC(=O)c4cc5c(cc4[C@H]3[C@@H]21)OCO5	–	–	Activity (Trichomonas vaginalis [6]): 13%

IC50 (Trypanosoma cruzi [1]) [µg/mL]	Compound	IC50 (Leishmania donovani [2]) [µg/mL]	IC50 [4] [µg/mL]	further results
–	COc1cc(C=O)c(-c2cccc3c2N(C)CC3)cc1OC	–	–	Activity (Trichomonas vaginalis [6]): 28%; Activity (Trichomonas vaginalis [3]): 28%
1 to 8.4 (≈ 2.69 to 22.6 µM)	CC(=O)O[C@H]1[C@H]2c3cc4c(cc3CN3CCC(=C[C@@H]1OC(C)=O)[C@H]23)OCO4	–	1 to 125 (≈ 2.69 to 337 µM)	Activity (Trichomonas vaginalis [3]): 19%
–	CO[C@H]1C=C[C@@]23c4cc5c(cc4CN(C[C@@H]2O)[C@H]3C1)OCO5	–	–	IC50 (Entamoeba histolytica): 0.53 µg/mL (≈ 1.76 µM)
–	CO[C@@H]1C=C[C@@]23c4cc5c(cc4[C@H](O)O[C@H]2CN(C)[C@H]3C1)OCO5	–	–	Activity (Trichomonas vaginalis [6]): 38%
35.9 (≈ 115 µM)	CC(=O)O[C@@H]1CC=C2CCN3Cc4cc5c(cc4[C@H]1[C@@H]23)OCO5 [ACETYLCARANINE]	> 100	1.97 (≈ 6.29 µM)	–
0.36 (≈ 1.38 µM)	O=C(Cn1ccnc1[N+](=O)[O-])NCc1ccccc1 [BENZNIDAZOLE]	0.2 (≈ 0.768 µM)	0.04 (≈ 0.154 µM)	IC50 (Trypanosoma cruzi [7]): 5.42 µg/mL (≈ 20.8 µM); IC50 (Leishmania donovani [8]): 33.3 µg/mL (≈ 128 µM); IC50 [9]: 0.001 µg/mL (≈ 0.00384 µM)
–	COc1c2c(cc3c1C(=O)O[C@H]1[C@@H]3[C@H]3C(=C[C@@H]1O)CCN3C)OCO2 [CANDIMINE]	–	–	Activity (Trichomonas vaginalis [3]): 60%
–	O[C@H]1C=C[C@@]23CCN(Cc4cc5c(cc42)OCO5)[C@@H]3C1 [CRININE]	–	18.9 (≈ 69.8 µM)	–
–	COc1cc2c(cc1OC)[C@@H]1[C@H](O)[C@@H](OC)C=C3CCN(C2)[C@H]31 [GALANTHINE]	–	3.1 (≈ 9.77 µM)	–
–	O[C@H]1[C@H]2c3cc4c(cc3CN3CCC(=C[C@@H]1O)[C@H]23)OCO4 [LYCORINE]	–	3.1 (≈ 10.8 µM)	Activity (Trichomonas vaginalis [6]): 20%; Activity (Trichomonas vaginalis [3]): 40%; IC50 (Entamoeba histolytica): 0.23 µg/mL (≈ 0.801 µM)
0.36 (≈ 0.883 µM)	CCCCCCCCCCCCCCCCOP(=O)([O-])OCC[N+](C)(C)C [MILTEFOSINE]	0.2 (≈ 0.491 µM)	0.04 (≈ 0.0981 µM)	–
–	CO[C@H]1C=C2[C@H]3CN(Cc4cc5c(cc43)OCO5)[C@H]2C[C@@H]1O [MONTANINE]	–	–	Activity (Trichomonas vaginalis [6]): 35%
> 90	O=C(O)c1cccnc1 [NIACIN]	57.4 (≈ 466 µM)	41.2 (≈ 335 µM)	–
–	COc1cc2c(cc1O)CN1CCC3=CC[C@@H](O)[C@@H]2[C@@H]31 [NORPLUVINE]	–	90 (≈ 329 µM)	–
–	Cc1ncc([N+](=O)[O-])n1CC(O)CCl (centres undefined) [ORNIDAZOLE]	–	–	IC50 (Entamoeba histolytica): 0.28 µg/mL (≈ 1.27 µM)
–	COc1cc([C@@H]2c3cc4c(cc3[C@H](O)[C@H]3COC(=O)[C@H]23)OCO4)cc(OC)c1OC [PODOFILOX]	–	–	IC50 (KB): 0.002 µg/mL (≈ 0.00483 µM); IC50 (L6): 0.005 µg/mL (≈ 0.0121 µM)
> 30	COc1cc2c(cc1O)[C@@H]1[C@H](O)[C@@H](O)C=C3CCN(C2)[C@H]31 [PSEUDOLYCORINE]	> 30	–	–
17.5 (≈ 54.2 µM)	c1cc2c(c3c1C[C@H]1c4cc5c(cc4CCN1C3)OCO5)OCO2 [STYLOPINE]	31.2 (≈ 96.4 µM)	10.9 (≈ 33.7 µM)	–
–	CO[C@@H]1C=C[C@@]23c4cc5c(cc4CO[C@]2(O)CN(C)[C@H]3C1)OCO5 [TAZETTINE]	–	–	Activity (Trichomonas vaginalis [6]): 15%
0.85 (≈ 3.2 µM)	[O-]c1cc2c3c(c1)c1cc4c(cc1c[n+]3CC2)OCO4 [UNGEREMINE]	> 30	0.97 (≈ 3.66 µM)	–

Compound	IC50 (Trypanosoma cruzi [1]) [µg/mL]	IC50 (Leishmania donovani [2]) [µg/mL]	IC50 [4] [µg/mL]	further results
COc1ccc2c3c1O[C@H]1C[C@H](O)C=C[C@@]31CCN(C)C2	> 30	> 30	–	–
O[C@H]1C=C2[C@H]3CN(Cc4cc5c(cc43)OCO5)[C@H]2C[C@@H]1O	7.1 (≈ 24.7 µM)	> 30	0.7 (≈ 2.44 µM)	–
CN1CC[C@]23c4cc5c(cc4[C@@H]4C[C@H]2[C@H](CC[C@H]13)O4)OCO5	54 (≈ 180 µM)	> 100	19.2 (≈ 64.1 µM)	–
COc1ccc(CNCCc2ccc(O)cc2)cc1O	58.7 (≈ 215 µM)	52.9 (≈ 194 µM)	28.6 (≈ 105 µM)	–
COc1c2c(cc3c1OCO3)[C@]13CC[N@](C2)[C@H]1CC=C[C@@H]3O	> 30	> 30	28.8 (≈ 95.6 µM)	–
CC(=O)O[C@H]1C=C[C@@]23CCN(C)Cc4ccc(O)c(c42)O[C@H]3C1	2.3 (≈ 7.29 µM)	–	1.1 (≈ 3.49 µM)	–
COc1c2c(cc3c1OCO3)[C@@]13CC[N@@](C2)[C@@H]1C[C@@H](OC)[C@@H]1O[C@@H]13	56 (≈ 169 µM)	> 100	15 (≈ 45.4 µM)	–
CO[C@@H]1C=C[C@@]23c4cc5c(cc4[C@H](O)N(C[C@@H]2O)[C@H]3C1)OCO5	1.38 to 1.4 (≈ 4.35 to 4.41 µM)	–	1.1 (≈ 3.47 µM)	–
O[C@H]1[C@H]2c3cc4c(cc3CN3CC[C@H](C[C@@H]1O)[C@H]23)OCO4	21.4 (≈ 73.9 µM)	> 90	3.1 (≈ 10.7 µM)	selectivity ratio [5]: > 16; IC50 (KB): > 50 µg/mL; IC50 (L6): 27 µg/mL (≈ 93.3 µM)
COC1C=C[C@@]23CCN(Cc4cc5c(cc42)OCO5)[C@@H]3C1 (some centres undefined)	55.5 (≈ 195 µM)	> 100	16.5 (≈ 57.8 µM)	–
COc1cc2c(cc1O)CN1CC[C@@]23C=CC(O)C[C@H]13 (some centres undefined)	> 90	> 90	61.5 (≈ 225 µM)	–
CO[C@@H]1C=C[C@@]23c4cc5c(cc4CN(C[C@@H]2O)[C@H]3C1)OCO5 [(+)-HAEMANTHAMINE]	1.8 to 30 (≈ 5.97 to 99.6 µM)	1.95 to 30 (≈ 6.47 to 99.6 µM)	0.49 to 3.35 (≈ 1.63 to 11.1 µM)	IC50 (Entamoeba histolytica): 0.75 µg/mL (≈ 2.49 µM)
COc1c2c(cc3c1OCO3)[C@@]13CCN(C2)[C@@H]1CC=C[C@H]3O [BUPHANAMINE]	62.9 (≈ 209 µM)	> 100	28.2 (≈ 93.6 µM)	–
COc1ccc2c3c1O[C@H]1C[C@@H](O)C=C[C@@]31CCN(C)C2 [GALANTAMINE]	> 30	> 30	> 30	–
Nc1nc(N)nc(Nc2ccc([As]3SCC(CO)S3)cc2)n1 (centres undefined) [MELARSOPROL]	0.36	0.2	0.04	IC50 (Trypanosoma cruzi [7]): 5.42 µg/mL; IC50 (Leishmania donovani [8]): 33.3 µg/mL
CN1CC[C@@]23C=C[C@H](O)C[C@@H]2Oc2c(O)ccc(c23)C1 [SANGUININE]	> 30	> 30	22.5 (≈ 82.3 µM)	–
